Experimental data reported in publication PMC6567099 (Journal of Enzyme Inhibition and Medicinal Chemistry, 2019).

Columns and labels:
[1] = target: APAO (N1-acetylpolyamine oxidase) (Homo sapiens, UniProt Q6QHF9); test: luminol/HRP chemiluminescence assay of H2O2 with purified recombinant enzyme; type: biochemical
[2] = target: SMO (spermine oxidase) (Homo sapiens, UniProt Q9NWM0); test: as above; type: biochemical
Chain of SMO (spermine oxidase) (Q9NWM0 whole entry): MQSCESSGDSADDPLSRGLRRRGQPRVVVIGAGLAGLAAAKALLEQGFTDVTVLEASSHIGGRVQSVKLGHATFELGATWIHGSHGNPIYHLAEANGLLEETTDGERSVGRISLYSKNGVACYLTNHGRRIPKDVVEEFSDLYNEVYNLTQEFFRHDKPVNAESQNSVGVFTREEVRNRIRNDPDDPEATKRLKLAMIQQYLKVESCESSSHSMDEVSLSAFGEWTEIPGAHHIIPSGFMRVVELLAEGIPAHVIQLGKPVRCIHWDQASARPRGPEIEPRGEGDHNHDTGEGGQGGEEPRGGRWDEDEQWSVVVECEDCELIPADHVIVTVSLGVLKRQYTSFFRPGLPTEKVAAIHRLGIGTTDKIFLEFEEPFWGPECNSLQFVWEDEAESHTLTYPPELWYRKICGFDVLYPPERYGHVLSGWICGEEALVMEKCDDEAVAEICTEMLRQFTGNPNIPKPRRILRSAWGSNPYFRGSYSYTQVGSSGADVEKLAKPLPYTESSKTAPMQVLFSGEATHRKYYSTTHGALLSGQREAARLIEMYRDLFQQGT

Chain of APAO (N1-acetylpolyamine oxidase) (Q6QHF9 whole entry): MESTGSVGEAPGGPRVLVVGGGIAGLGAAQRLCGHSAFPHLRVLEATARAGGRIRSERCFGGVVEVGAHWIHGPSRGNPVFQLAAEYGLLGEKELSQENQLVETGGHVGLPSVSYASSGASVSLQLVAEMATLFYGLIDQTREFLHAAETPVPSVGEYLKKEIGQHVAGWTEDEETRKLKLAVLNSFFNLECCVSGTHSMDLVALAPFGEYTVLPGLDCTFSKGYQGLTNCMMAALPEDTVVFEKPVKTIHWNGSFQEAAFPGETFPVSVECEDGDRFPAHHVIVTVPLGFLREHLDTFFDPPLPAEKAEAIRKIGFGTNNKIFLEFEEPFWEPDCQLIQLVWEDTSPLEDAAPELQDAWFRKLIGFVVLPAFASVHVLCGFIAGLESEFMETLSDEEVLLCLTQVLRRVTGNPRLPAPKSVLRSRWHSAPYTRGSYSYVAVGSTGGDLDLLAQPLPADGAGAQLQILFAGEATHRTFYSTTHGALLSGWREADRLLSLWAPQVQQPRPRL

Compound: CN(C)CCCNCCCNC(=O)c1cccc2cccnc12 [SI-4650, N-(3-{[3-(dimethylamino)propyl]amino}propyl)-8-quinolinecarboxamide]
- IC50 [1]: 35.4 ± 0.26 µM
- IC50 [2]: 381.8 ± 0.17 µM
